# Experimental data as given in US7759337B2, “Phthalazine compounds and methods of use” (Amgen Inc., priority 2005, dated 2010).
# Test system: production of TNF by monocytes activated with bacterial lipopolysaccharide (LPS)
# Assay: Lipopolysaccharide-activated monocyte TNF production assay
# Assay type: cell-based
# Conditions: Homo sapiens; whole blood monocyte assay (LPS induced TNF release)
# Summary of the method: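 Adherent human PBMC-derived monocytes preincubated 60 min with nine two-fold compound dilutions, then stimulated with E. coli K532 LPS (30 ng/mL in the added medium) for 4 h at 37 °C. Supernatant TNF measured by sandwich ELISA; IC50 is the compound concentration halving TNF production, from second-order polynomial fits.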
row,SMILES,IC50 [µM]
1,"Cc1ccc(C(=O)NC2CC2)cc1-c1ccc2c(N3CCNC(=O)CC3)nncc2c1 [Example 275, N-cyclopropyl-4-methyl-3-[1-(5-oxo-1,4-diazepan-1-yl)phthalazin-6-yl]benzamide]",≤ 5
2,"Cc1ccc(C(=O)NC2CC2)cc1-c1cnc2c(N3CCOCC3)nncc2c1 [Example 276, N-cyclopropyl-4-methyl-3-(8-morpholin-4-ylpyrido[2,3-d]pyridazin-3-yl)benzamide]",≤ 5
3,"Cc1ccc(C(N)=O)cc1-c1ccc2c(N3CCNC(=O)CC3)nncc2c1 [Example 277, 4-methyl-3-[1-(5-oxo-1,4-diazepan-1-yl)phthalazin-6-yl]benzamide]",≤ 5
4,"CONC(=O)c1ccc(C)c(-c2ccc3c(N4CCOCC4)nncc3c2)c1 [Example 278, N-methoxy-4-methyl-3-(1-morpholin-4-ylphthalazin-6-yl)benzamide]",≤ 5
5,"CONC(=O)c1ccc(C)c(-c2ccc3c(NC(C)C)nncc3c2)c1 [Example 279, 3-[1-(isopropylamino)phthalazin-6-yl]-N-methoxy-4-methylbenzamide]",≤ 5
6,"Cc1ccc(C(N)=O)cc1-c1ccc2c(N3CCN4C(=O)OC[C@@H]4C3)nncc2c1 [Example 280, 3-{1-[(8aS)-3-oxotetrahydro[1,3]oxazolo[3,4-a]pyrazin-7(1H)-yl]phthalazin-6-yl}-4-methylbenzamide]",≤ 5
7,"Cc1ccc(C(N)=O)cc1-c1ccc2c(N(C)C)nncc2c1 [Example 281, 3-[1-(dimethylamino)phthalazin-6-yl]-4-methylbenzamide]",≤ 5
8,"Cc1ccc(C(N)=O)cc1-c1ccc2c(N3CCN4CCC[C@H]4C3)nncc2c1 [Example 282, 3-{1-[(8aS)-hexahydropyrrolo[1,2-a]pyrazin-2(1H)-yl]phthalazin-6-yl}-4-methylbenzamide]",≤ 5
9,"Cc1ccc(C(=O)NC2CCC2)cc1-c1ccc2c(N(C)C)nncc2c1 [Example 283, N-cyclobutyl-3-[1-(dimethylamino)phthalazin-6-yl]-4-methylbenzamide]",≤ 5
10,"Cc1ccc(C(N)=O)cc1-c1ccc2c(N3CCN4C(=O)OC[C@H]4C3)nncc2c1 [Example 284, 3-{1-[(8aR)-3-oxotetrahydro[1,3]oxazolo[3,4-a]pyrazin-7(1H)-yl]phthalazin-6-yl}-4-methylbenzamide]",≤ 5
11,"Cc1ccc(C(N)=O)cc1-c1ccc2c(N3CCN4C(=O)CC[C@H]4C3)nncc2c1 [Example 285, 3-{1-[(8aS)-6-oxohexahydropyrrolo[1,2-a]pyrazin-2(1H)-yl]phthalazin-6-yl}-4-methylbenzamide]",≤ 5
12,"Cc1ccc(C(=O)NC2CC2)cc1-c1ccc2c(-c3ccc(F)cc3C)nncc2c1 [Example 286, N-cyclopropyl-3-[1-(4-fluoro-2-methylphenyl)phthalazin-6-yl]-4-methylbenzamide]",≤ 5
13,"Cc1ccc(C(=O)NC2CC2)cc1-c1ccc2c(-c3c[nH]c(=O)cc3C)nncc2c1 [Example 287, N-cyclopropyl-4-methyl-3-[1-(4-methyl-6-oxo-1,6-dihydropyridin-3-yl)phthalazin-6-yl]benzamide]",≤ 5
14,"Cc1ccc(C(=O)NC2CC2)cc1-c1ccc2c(O)nncc2c1 [Example 288, N-cyclopropyl-3-(1-hydroxyphthalazin-6-yl)-4-methylbenzamide]",≤ 5
15,"Cc1ccc(C(=O)NC2CC2)cc1-c1ccc2c(N(C)C3CCCCC3)nncc2c1 [Example 289, 3-{1-[cyclohexyl(methyl)amino]phthalazin-6-yl}-N-cyclopropyl-4-methylbenzamide]",≤ 5
16,"Cc1ccc(C(=O)NC2CC2)cc1-c1ccc2c(N(C)C(C)C)nncc2c1 [Example 290, N-cyclopropyl-3-{1-[isopropyl(methyl)amino]phthalazin-6-yl}-4-methylbenzamide]",≤ 5
17,"Cc1ccc(C(N)=O)cc1-c1ccc2c(N(C)C3CCCCC3)nncc2c1 [Example 291, 3-{1-[cyclohexyl(methyl)amino]phthalazin-6-yl}-4-methylbenzamide]",≤ 5
18,"Cc1ccc(C(N)=O)cc1-c1ccc2c(N(C)C(C)C)nncc2c1 [Example 292, 3-{1-[isopropyl(methyl)amino]phthalazin-6-yl}-4-methylbenzamide]",≤ 5
19,"Cc1ccc(C(=O)NC2CC2)cc1-c1ccc2c(N3CCC[C@H]3C(C)C)nncc2c1 [Example 293, N-cyclopropyl-3-{1-[(2S)-2-isopropylpyrrolidin-1-yl]phthalazin-6-yl}-4-methylbenzamide]",≤ 5
20,"Cc1ccc(C(N)=O)cc1-c1ccc2c(N3CCn4c(nnc4C(F)(F)F)C3)nncc2c1 [Example 294, 4-methyl-3-{1-[3-(trifluoromethyl)-5,6-dihydro[1,2,4]triazolo[4,3-a]pyrazin-7(8H)-yl]phthalazin-6-yl}benzamide]",≤ 5
21,"Cc1ccc(C(=O)NC2CC2)cc1-c1ccc2c(N3CCC[C@@H]3C)nncc2c1 [Example 295, N-cyclopropyl-4-methyl-3-{1-[(2S)-2-methylpyrrolidin-1-yl]phthalazin-6-yl}benzamide]",≤ 5

row,SMILES,IC50 [µM]
1,"Cc1ccc(C(=O)NC2CC2)cc1-c1ccc2c(N3CCC[C@H]3C)nncc2c1 [Example 296, N-cyclopropyl-4-methyl-3-{1-[(2R)-2-methylpyrrolidin-1-yl]phthalazin-6-yl}benzamide]",≤ 5
2,"Cc1ccc(C(=O)NC2CC2)cc1-c1ccc2c(NC[C@H]3CCCO3)nncc2c1 [Example 297, N-cyclopropyl-4-methyl-3-(1-{[(2R)-tetrahydrofuran-2-ylmethyl]amino}phthalazin-6-yl)benzamide]",≤ 5
3,"CC[C@H](C)Nc1nncc2cc(-c3cc(C(=O)NC4CC4)ccc3C)ccc12 [Example 298, N-cyclopropyl-4-methyl-3-(1-{[(1S)-1-methylpropyl]amino}phthalazin-6-yl)benzamide]",≤ 5
4,"Cc1ccccc1Oc1nncc2cc(-c3cc(C(N)=O)ccc3C)ccc12 [Example 299, 4-methyl-3-[1-(2-methylphenoxy)phthalazin-6-yl]benzamide]",≤ 5
5,"Cc1ccc(C(N)=O)cc1-c1ccc2c(Oc3cccnc3C)nncc2c1 [Example 300, 4-methyl-3-{1-[(2-methylpyridin-3-yl)oxy]phthalazin-6-yl}benzamide]",≤ 5
6,"Cc1ccc(C(N)=O)cc1-c1ccc2c(Oc3ccc(F)cc3)nncc2c1 [Example 301, 3-[1-(4-fluorophenoxy)phthalazin-6-yl]-4-methylbenzamide]",≤ 5
7,"CC[C@H](C)Oc1nncc2cc(-c3cc(C(=O)NC4CC4)ccc3C)ccc12 [Example 302, N-cyclopropyl-4-methyl-3-(1-{[(1S)-1-methylpropyl]oxy}phthalazin-6-yl)benzamide]",≤ 5
8,"CC[C@H](C)Nc1nncc2cc(-c3cc(C(N)=O)ccc3C)ccc12 [Example 303, 4-methyl-3-(1-{[(1S)-1-methylpropyl]amino}phthalazin-6-yl)benzamide]",≤ 5
9,"Cc1ccc(C(N)=O)cc1-c1ccc2c(Oc3ccc(F)cc3F)nncc2c1 [Example 304, 3-[1-(2,4-difluorophenoxy)phthalazin-6-yl]-4-methylbenzamide]",≤ 5
10,"Cc1cc(F)ccc1Oc1nncc2cc(-c3cc(C(=O)NC4CC4)ccc3C)ccc12 [Example 305, N-cyclopropyl-3-[1-(4-fluoro-2-methylphenoxy)phthalazin-6-yl]-4-methylbenzamide]",≤ 5
11,"COc1ccccc1Oc1nncc2cc(-c3cc(C(N)=O)ccc3C)ccc12 [Example 306, 3-[1-(2-methoxyphenoxy)phthalazin-6-yl]-4-methylbenzamide]",≤ 5
12,"Cc1ccc(C(N)=O)cc1-c1ccc2c(Oc3cccc(Cl)c3)nncc2c1 [Example 307, 3-[1-(3-chlorophenoxy)phthalazin-6-yl]-4-methylbenzamide]",≤ 5
13,"Cc1ccc(C(=O)NC2CC2)cc1-c1ccc2c(Oc3cccnc3C)nncc2c1 [Example 308, N-cyclopropyl-4-methyl-3-{1-[(2-methylpyridin-3-yl)oxy]phthalazin-6-yl}benzamide]",≤ 5
14,"Cc1ccc(C(=O)NC2CC2)cc1-c1ccc2c(NC[C@@H]3CCCO3)nncc2c1 [Example 309, N-cyclopropyl-4-methyl-3-(1-{[(2S)-tetrahydrofuran-2-ylmethyl]amino}phthalazin-6-yl)benzamide]",≤ 5
15,"Cc1ccc(C(=O)NC2CC2)cc1-c1ccc2c(NCCCN3CCCC3=O)nncc2c1 [Example 310, N-cyclopropyl-4-methyl-3-(1-{[3-(2-oxopyrrolidin-1-yl)propyl]amino}phthalazin-6-yl)benzamide]",≤ 5
16,"Cc1ccc(C(N)=O)cc1-c1ccc2c(OC3CCCCC3)nncc2c1 [Example 311, 3-[1-(cyclohexyloxy)phthalazin-6-yl]-4-methylbenzamide]",≤ 5
17,"Cc1ccc(C(=O)NC2CC2)cc1-c1ccc2c(NC3CCC(O)CC3)nncc2c1 (stereo not drawn) [Example 312, N-cyclopropyl-3-{1-[(4-hydroxycyclohexyl)amino]phthalazin-6-yl}-4-methylbenzamide]",≤ 5
18,"CC[C@@H](C)Nc1nncc2cc(-c3cc(C(=O)NC4CC4)ccc3C)ccc12 [Example 314, N-cyclopropyl-4-methyl-3-(1-{[(1R)-1-methylpropyl]amino}phthalazin-6-yl)benzamide]",≤ 5
19,"Cc1ccc(C(N)=O)cc1-c1ccc2c(OCC(C)(C)C)nncc2c1 [Example 315, 4-methyl-3-[1-(neopentyloxy)phthalazin-6-yl]benzamide]",≤ 5
20,"Cc1ccc(C(N)=O)cc1-c1ccc2c(OC3CCCN(C)C3)nncc2c1 (stereo not drawn) [Example 316, 4-methyl-3-{1-[(1-methylpiperidin-3-yl)oxy]phthalazin-6-yl}benzamide]",≤ 5
21,"Cc1ccc(C(=O)NC2CC2)cc1-c1ccc2c(OC3CCCN(C)C3)nncc2c1 (stereo not drawn) [Example 317, N-cyclopropyl-4-methyl-3-{1-[(1-methylpiperidin-3-yl)oxy]phthalazin-6-yl}benzamide]",≤ 5
